According to PMC9856672, “SGC-CAMKK2-1: A Chemical Probe for CAMKK2” (Cells, 2023):

Experiments:
[1] = Single dose IP pharmacokinetic study in mice; format: in vivo, CD-1 mice; conditions: mouse, 10 mg/kg IP, plasma at 0.5, 1, 3, 8 h
Method: CD-1 mice with weights 23–25 g were purchased from Charles River Laboratories.
The animal experiments were performed at Alliance Pharma (Malvern, PA, USA) in accordance with the guide for the care and use of laboratory animals. Alliance Pharma is accredited by the Association for Assessment and Accreditation of Laboratory Animal Care (AAALAC).
The test compounds were dissolved in DMSO and then diluted to the appropriate concentration with the vehicle. For formulation we targeted the minimal amount of DMSO that could be used in combination with a formulation composed of 0.5% HPMC/0.2% Polysorbate 80. […] Blood was collected at t = 0.5, 1, 3, and 8 h and immediately spun for 3 min, the plasma was collected, and compound levels were quantified with HPLC/MS. The raw data are available in the Supplemental Information.
With the probe molecule having favorable selectivity and potency in vitro and in a cellular context, we next wanted to determine its suitability for in vivo experiments. SGC-CAMKK2-1 (5) was progressed to a single dose mouse intraperitoneal (I.P) experiment.

LATS2 = molecular target: T1, LATS2 (Homo sapiens, UniProt Q9NRM7); experiment: KINOMEscan at 1 μM, LATS2; format: binding; conditions: 1000 nM, read-out: Percent Control
T1 construct: purchased Eurofins DiscoverX KINOMEscan
Description: (§1) Supplement cells-12-00287-s001.zip/File S2. KinomeScan data for the CAMKK2 probe and negative control.xlsx, sheet "SGC-CAMKK2-1N" | column: Percent Control

PIK3CA(E542K) = molecular target: T2, PIK3CA(E542K) (Homo sapiens, UniProt P42336, E542K); experiment: KINOMEscan at 1 μM, PIK3CA(E542K); format: binding; conditions: 1000 nM, read-out: Percent Control
T2 construct: purchased Eurofins DiscoverX KINOMEscan
T2 sequence (P42336 whole entry E542K): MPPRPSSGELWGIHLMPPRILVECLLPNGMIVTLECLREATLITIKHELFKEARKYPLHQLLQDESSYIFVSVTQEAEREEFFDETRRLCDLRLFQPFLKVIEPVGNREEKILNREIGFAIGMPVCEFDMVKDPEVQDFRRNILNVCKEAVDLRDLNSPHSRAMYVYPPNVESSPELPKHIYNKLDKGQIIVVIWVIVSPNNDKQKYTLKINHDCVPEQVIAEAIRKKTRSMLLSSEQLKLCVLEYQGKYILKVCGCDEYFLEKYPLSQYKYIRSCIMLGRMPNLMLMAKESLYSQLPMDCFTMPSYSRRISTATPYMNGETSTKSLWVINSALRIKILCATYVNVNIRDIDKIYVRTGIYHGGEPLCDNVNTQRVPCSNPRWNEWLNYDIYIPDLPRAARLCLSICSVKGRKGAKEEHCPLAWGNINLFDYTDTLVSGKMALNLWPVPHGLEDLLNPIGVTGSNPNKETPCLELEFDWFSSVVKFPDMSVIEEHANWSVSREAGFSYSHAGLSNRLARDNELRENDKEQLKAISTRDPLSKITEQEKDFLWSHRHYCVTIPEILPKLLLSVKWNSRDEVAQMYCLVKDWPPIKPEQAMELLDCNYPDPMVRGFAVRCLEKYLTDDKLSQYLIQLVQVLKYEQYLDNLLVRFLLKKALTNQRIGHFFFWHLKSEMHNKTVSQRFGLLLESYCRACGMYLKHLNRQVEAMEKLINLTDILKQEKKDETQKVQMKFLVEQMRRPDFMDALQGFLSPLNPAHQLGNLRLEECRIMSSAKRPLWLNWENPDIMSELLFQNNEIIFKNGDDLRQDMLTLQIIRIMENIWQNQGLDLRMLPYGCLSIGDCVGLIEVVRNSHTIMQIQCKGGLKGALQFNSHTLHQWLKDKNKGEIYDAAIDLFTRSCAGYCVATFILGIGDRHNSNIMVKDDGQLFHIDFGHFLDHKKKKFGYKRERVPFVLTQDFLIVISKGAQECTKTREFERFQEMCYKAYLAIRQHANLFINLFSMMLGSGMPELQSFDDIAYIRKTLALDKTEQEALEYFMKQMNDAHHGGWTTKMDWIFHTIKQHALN
Description: as §1

[2] = molecular target: T3, RSK4(Kin.Dom.2-C-terminal) (Homo sapiens, UniProt Q9UK32); experiment: KINOMEscan binding assay at 1 μM, RSK4(Kin.Dom.2-C-terminal); conditions: Compound Concentration 1000 nM; read-out: Percent Control
T3 construct: RSK4(Kin.Dom.2-C-terminal); purchased Eurofins DiscoverX KINOMEscan
Description: as §1

TAK1 = molecular target: T4, TAK1 (Homo sapiens, UniProt O43318); experiment: KINOMEscan at 1 μM, TAK1; format: binding; conditions: 1000 nM, read-out: Percent Control
T4 construct: purchased Eurofins DiscoverX KINOMEscan
Description: as §1

KIT(V559D,V654A) = molecular target: T5, KIT(V559D,V654A) (Homo sapiens, UniProt P10721, V559D/V654A); experiment: KINOMEscan at 1 μM, KIT(V559D,V654A); format: binding; conditions: 1000 nM, read-out: Percent Control
T5 construct: purchased Eurofins DiscoverX KINOMEscan
Description: as §1

MAP3K4 = molecular target: T6, MAP3K4 (Homo sapiens, UniProt Q9Y6R4); experiment: KINOMEscan at 1 μM, MAP3K4; format: binding; conditions: 1000 nM, read-out: Percent Control
T6 construct: purchased Eurofins DiscoverX KINOMEscan
Description: as §1

EPHA6 = molecular target: T7, EPHA6 (Homo sapiens, UniProt Q9UF33); experiment: KINOMEscan binding assay at 1 μM, EPHA6; conditions: Compound Concentration 1000 nM; read-out: Percent Control
T7 construct: purchased Eurofins DiscoverX KINOMEscan
Description: as §1

MELK = molecular target: T8, MELK (Homo sapiens, UniProt Q14680); experiment: KINOMEscan at 1 μM, MELK; format: binding; conditions: 1000 nM, read-out: Percent Control
T8 construct: purchased Eurofins DiscoverX KINOMEscan
T8 sequence (Q14680 whole entry): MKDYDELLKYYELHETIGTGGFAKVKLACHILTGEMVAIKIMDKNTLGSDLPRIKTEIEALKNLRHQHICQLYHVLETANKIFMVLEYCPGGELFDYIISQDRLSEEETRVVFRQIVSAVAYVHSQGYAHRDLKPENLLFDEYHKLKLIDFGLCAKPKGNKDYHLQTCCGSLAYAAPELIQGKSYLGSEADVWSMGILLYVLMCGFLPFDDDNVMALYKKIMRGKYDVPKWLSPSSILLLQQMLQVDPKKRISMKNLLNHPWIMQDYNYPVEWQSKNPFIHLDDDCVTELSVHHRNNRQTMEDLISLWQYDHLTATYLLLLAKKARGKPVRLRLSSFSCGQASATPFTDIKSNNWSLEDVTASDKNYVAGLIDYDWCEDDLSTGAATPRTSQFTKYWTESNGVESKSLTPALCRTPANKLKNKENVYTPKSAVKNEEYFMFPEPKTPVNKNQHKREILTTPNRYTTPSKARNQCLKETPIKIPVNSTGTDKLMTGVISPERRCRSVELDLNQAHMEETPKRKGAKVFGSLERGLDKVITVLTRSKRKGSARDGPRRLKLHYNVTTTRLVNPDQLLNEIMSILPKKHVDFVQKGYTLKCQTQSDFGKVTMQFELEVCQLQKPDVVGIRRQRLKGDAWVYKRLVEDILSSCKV
Description: as §1

[3] = molecular target: T9, ABL1(H396P)-phosphorylated (Homo sapiens, UniProt P00519, H396P); experiment: KINOMEscan at 1 μM, ABL1(H396P)-phosphorylated; format: binding; conditions: 1000 nM, read-out: Percent Control
T9 construct: purchased Eurofins DiscoverX KINOMEscan
Description: as §1

[4] = molecular target: T9, ABL1(H396P)-phosphorylated; experiment: KINOMEscan 1 μM, ABL1(H396P)-phosphorylated; format: binding; conditions: 1000 nM; Entrez ABL1; read-out: Percent Control
Description: (§2) Supplement cells-12-00287-s001.zip/File S2. KinomeScan data for the CAMKK2 probe and negative control.xlsx, sheet "SGC-CAMKK2-1" | column: Percent Control

PFPK5(P.falciparum) = molecular target: T10, PFPK5(P.falciparum) (Plasmodium falciparum, UniProt P61075); experiment: DiscoverX KINOMEscan binding assay at 1 μM, PFPK5(P.falciparum); conditions: PFPK5(P.falciparum) (MAL13P1.279); Compound Concentration 1000 nM; read-out: Percent Control
T10 construct: purchased Eurofins DiscoverX KINOMEscan
T10 sequence (P61075 whole entry): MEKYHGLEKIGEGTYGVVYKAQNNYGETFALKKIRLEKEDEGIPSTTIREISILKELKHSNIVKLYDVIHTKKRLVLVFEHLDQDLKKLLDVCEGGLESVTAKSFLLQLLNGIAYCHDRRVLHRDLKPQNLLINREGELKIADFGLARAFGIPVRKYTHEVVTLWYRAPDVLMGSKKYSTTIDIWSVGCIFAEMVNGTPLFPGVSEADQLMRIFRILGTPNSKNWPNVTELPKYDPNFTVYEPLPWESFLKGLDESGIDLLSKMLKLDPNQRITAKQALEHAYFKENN
Description: as §2

PFTAIRE2 = molecular target: T11, PFTAIRE2 (Homo sapiens, UniProt Q96Q40); experiment: DiscoverX KINOMEscan binding assay at 1 μM, PFTAIRE2; conditions: PFTAIRE2 (CDK15); Compound Concentration 1000 nM; read-out: Percent Control
T11 construct: purchased Eurofins DiscoverX KINOMEscan
Description: as §2

PIK3CB = molecular target: T12, PIK3CB (Homo sapiens, UniProt P42338); experiment: DiscoverX KINOMEscan binding assay at 1 μM, PIK3CB; conditions: Compound Concentration 1000 nM, read-out: Percent Control
T12 construct: purchased Eurofins DiscoverX KINOMEscan
Description: as §2

TNIK = molecular target: T13, TNIK (Homo sapiens, UniProt Q9UKE5); experiment: KINOMEscan 1 μM, TNIK; format: binding; conditions: 1000 nM; Entrez TNIK; read-out: Percent Control
T13 construct: purchased Eurofins DiscoverX KINOMEscan
Description: as §2

MARK2 = molecular target: T14, MARK2 (Homo sapiens, UniProt Q7KZI7); experiment: KINOMEscan 1 μM, MARK2; format: binding; conditions: 1000 nM; Entrez MARK2; read-out: Percent Control
T14 construct: purchased Eurofins DiscoverX KINOMEscan
Description: as §2

SNARK = molecular target: T15, SNARK (Homo sapiens, UniProt Q9H093); experiment: DiscoverX KINOMEscan binding assay at 1 μM, SNARK; conditions: SNARK (NUAK2); Compound Concentration 1000 nM; read-out: Percent Control
T15 construct: purchased Eurofins DiscoverX KINOMEscan
Description: as §2

PIK4CB = molecular target: T16, PIK4CB (Homo sapiens, UniProt Q9UBF8); experiment: DiscoverX KINOMEscan binding assay at 1 μM, PIK4CB; conditions: PIK4CB (PI4KB); Compound Concentration 1000 nM; read-out: Percent Control
T16 construct: purchased Eurofins DiscoverX KINOMEscan
T16 sequence (Q9UBF8 whole entry): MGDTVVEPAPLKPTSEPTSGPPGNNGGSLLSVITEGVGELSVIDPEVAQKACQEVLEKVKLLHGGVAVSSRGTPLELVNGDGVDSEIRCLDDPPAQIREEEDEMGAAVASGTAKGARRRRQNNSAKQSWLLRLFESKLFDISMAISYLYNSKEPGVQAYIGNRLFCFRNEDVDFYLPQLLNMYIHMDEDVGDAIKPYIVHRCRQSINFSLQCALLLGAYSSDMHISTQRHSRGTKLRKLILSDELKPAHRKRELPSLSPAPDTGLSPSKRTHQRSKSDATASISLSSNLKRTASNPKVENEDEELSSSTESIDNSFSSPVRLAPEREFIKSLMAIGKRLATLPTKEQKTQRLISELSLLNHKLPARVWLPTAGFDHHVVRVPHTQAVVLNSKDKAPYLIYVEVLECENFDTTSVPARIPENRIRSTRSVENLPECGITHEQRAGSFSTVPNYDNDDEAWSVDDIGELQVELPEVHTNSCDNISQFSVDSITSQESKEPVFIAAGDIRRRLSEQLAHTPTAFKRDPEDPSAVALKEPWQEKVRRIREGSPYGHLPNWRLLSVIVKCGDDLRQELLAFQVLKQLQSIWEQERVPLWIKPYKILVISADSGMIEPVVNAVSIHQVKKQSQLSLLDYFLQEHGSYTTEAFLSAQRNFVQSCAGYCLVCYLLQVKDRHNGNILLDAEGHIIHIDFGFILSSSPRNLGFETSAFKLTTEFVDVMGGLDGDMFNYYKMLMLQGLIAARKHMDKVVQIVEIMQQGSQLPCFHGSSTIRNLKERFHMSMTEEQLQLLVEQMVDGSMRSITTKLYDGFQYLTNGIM
Description: as §2

[5] = molecular target: T17, TYK2(JH2domain-pseudokinase) (Homo sapiens, UniProt P29597); experiment: DiscoverX KINOMEscan binding assay at 1 μM, TYK2(JH2domain-pseudokinase); conditions: Compound Concentration 1000 nM, read-out: Percent Control
T17 construct: TYK2(JH2domain-pseudokinase); purchased Eurofins DiscoverX KINOMEscan
T17 sequence (P29597 556-888 limits assumed): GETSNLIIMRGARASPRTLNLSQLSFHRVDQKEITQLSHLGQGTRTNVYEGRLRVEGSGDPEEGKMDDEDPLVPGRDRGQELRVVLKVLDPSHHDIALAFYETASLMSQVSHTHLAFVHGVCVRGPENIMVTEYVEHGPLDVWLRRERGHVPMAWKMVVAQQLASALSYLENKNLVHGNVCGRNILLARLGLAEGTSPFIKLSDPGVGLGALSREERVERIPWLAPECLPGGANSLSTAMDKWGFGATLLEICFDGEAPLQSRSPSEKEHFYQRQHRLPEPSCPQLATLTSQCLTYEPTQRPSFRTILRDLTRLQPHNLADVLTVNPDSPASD
Description: as §2

ALK = molecular target: T18, ALK (Homo sapiens, UniProt Q9UM73); experiment: KINOMEscan 1 μM, ALK; format: binding; conditions: 1000 nM; Entrez ALK; read-out: Percent Control
T18 construct: purchased Eurofins DiscoverX KINOMEscan
Description: as §2

FLT3(ITD,D835V) = experiment: KINOMEscan 1 μM, FLT3(ITD,D835V); format: binding, human; conditions: 1000 nM; Entrez FLT3
Description: as §2

YANK2 = molecular target: T19, YANK2 (Homo sapiens, UniProt Q9NY57); experiment: DiscoverX KINOMEscan binding assay at 1 μM, YANK2; conditions: YANK2 (STK32B); Compound Concentration 1000 nM; read-out: Percent Control
T19 construct: purchased Eurofins DiscoverX KINOMEscan
Description: as §2

SRPK1 = molecular target: T20, SRPK1 (Homo sapiens, UniProt Q96SB4); experiment: KINOMEscan 1 μM, SRPK1; format: binding; conditions: 1000 nM; Entrez SRPK1; read-out: Percent Control
T20 construct: purchased Eurofins DiscoverX KINOMEscan
Description: as §2

YSK4 = molecular target: T21, YSK4 (Homo sapiens, UniProt Q56UN5); experiment: KINOMEscan 1 μM, YSK4; format: binding; conditions: 1000 nM; Entrez MAP3K19; read-out: Percent Control
T21 construct: purchased Eurofins DiscoverX KINOMEscan
T21 sequence (Q56UN5 whole entry): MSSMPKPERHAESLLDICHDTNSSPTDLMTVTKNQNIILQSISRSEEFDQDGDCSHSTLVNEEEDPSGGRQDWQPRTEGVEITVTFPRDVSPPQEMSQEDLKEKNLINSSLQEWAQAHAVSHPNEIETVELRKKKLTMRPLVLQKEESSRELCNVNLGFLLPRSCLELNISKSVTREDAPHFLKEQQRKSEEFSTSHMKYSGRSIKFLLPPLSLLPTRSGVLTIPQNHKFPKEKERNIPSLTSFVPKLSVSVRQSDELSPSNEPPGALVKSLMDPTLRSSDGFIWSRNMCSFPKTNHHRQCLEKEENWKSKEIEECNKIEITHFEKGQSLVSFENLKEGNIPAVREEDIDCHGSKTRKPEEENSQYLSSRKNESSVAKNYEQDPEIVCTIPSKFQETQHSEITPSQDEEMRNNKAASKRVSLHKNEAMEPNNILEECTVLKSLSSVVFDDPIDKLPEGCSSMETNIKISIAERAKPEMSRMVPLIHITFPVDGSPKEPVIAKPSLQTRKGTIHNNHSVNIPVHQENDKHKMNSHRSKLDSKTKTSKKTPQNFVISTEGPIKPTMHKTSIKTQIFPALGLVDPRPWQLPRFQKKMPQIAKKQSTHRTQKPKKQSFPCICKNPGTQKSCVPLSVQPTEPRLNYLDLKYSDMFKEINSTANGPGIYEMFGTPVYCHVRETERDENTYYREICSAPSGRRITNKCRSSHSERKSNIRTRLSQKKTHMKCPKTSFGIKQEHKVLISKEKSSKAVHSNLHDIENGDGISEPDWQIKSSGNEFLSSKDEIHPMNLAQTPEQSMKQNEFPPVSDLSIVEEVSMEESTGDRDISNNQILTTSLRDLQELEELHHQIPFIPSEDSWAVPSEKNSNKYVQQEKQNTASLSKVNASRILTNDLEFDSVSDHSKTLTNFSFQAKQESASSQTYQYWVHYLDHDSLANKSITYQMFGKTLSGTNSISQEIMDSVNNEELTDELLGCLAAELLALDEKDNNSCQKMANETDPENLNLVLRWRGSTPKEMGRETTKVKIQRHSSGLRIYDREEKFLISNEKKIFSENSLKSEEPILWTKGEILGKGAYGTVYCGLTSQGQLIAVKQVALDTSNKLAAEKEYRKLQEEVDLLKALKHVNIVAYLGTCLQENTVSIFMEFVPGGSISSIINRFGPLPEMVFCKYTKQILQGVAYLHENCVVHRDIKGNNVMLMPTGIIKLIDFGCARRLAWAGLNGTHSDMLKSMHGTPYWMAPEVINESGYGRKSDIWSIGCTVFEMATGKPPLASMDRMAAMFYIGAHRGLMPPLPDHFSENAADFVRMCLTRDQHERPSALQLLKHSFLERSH
Description: as §2

PRKR = molecular target: T22, PRKR (Homo sapiens, UniProt P19525); experiment: DiscoverX KINOMEscan binding assay at 1 μM, PRKR; conditions: PRKR (EIF2AK2); Compound Concentration 1000 nM; read-out: Percent Control
T22 construct: purchased Eurofins DiscoverX KINOMEscan
T22 sequence (P19525 whole entry): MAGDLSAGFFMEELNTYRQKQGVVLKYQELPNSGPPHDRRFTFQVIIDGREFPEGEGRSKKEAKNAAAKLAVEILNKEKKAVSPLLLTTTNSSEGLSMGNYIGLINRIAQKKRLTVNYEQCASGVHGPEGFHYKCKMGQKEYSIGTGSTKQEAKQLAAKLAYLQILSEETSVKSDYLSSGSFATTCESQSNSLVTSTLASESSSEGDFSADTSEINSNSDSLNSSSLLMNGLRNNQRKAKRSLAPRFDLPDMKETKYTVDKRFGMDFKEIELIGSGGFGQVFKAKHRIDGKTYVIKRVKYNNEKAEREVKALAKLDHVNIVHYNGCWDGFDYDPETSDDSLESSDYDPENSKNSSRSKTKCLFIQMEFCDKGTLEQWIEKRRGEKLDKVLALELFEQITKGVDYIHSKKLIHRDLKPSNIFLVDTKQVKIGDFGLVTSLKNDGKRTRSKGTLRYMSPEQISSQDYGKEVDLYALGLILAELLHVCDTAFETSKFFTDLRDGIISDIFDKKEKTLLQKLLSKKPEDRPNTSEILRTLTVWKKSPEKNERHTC
Description: as §2

ARK5 = molecular target: T23, ARK5 (Homo sapiens, UniProt O60285); experiment: KINOMEscan 1 μM, ARK5; format: binding; conditions: 1000 nM; Entrez NUAK1; read-out: Percent Control
T23 construct: purchased Eurofins DiscoverX KINOMEscan
Description: as §2

Question: With `Cc1cccc(-c2cnc3occ(-c4ccc(C(=O)O)c(C5CCCC5)c4)c3c2)c1` [Compound 5] as the compound, how does the “plasma concentration / in vivo PK (in words)” value [1] read?
Answer: poor in vivo PK

Question: For `O=C(O)c1ccc(-c2coc3ncc(-c4ccccc4)cc23)cc1Cl` [SGC-CAMKK2-1N (UNC-YL-83)], which remaining binding at 1 µM (LATS2) is on record?
Answer: 87%

Question: What about the remaining binding at 1 µM (PIK3CA(E542K)) of the same compound?
Answer: 81%

Question: What about the remaining binding at 1 µM [2] of the same compound?
Answer: 100%

Question: And the remaining binding at 1 µM (TAK1)?
Answer: 62%

Question: What about the remaining binding at 1 µM (KIT(V559D,V654A)) of the same compound?
Answer: 92%

Question: And the remaining binding at 1 µM (MAP3K4)?
Answer: 68%

Question: What about the remaining binding at 1 µM (EPHA6) of the same compound?
Answer: 100%

Question: What about the remaining binding at 1 µM (MELK) of the same compound?
Answer: 88%

Question: And the remaining binding at 1 µM [3]?
Answer: 74%

Question: For `Cc1cccc(-c2cnc3occ(-c4ccc(C(=O)O)c(C5CCCC5)c4)c3c2)c1` [SGC-CAMKK2-1 (YL-36)], which remaining binding at 1 µM [4] is on record?
Answer: 77%

Question: And the remaining binding at 1 µM (PFPK5(P.falciparum))?
Answer: 100%

Question: And the remaining binding at 1 µM (PFTAIRE2)?
Answer: 100%

Question: And the remaining binding at 1 µM (PIK3CB)?
Answer: 100%

Question: And the remaining binding at 1 µM (TNIK)?
Answer: 92%

Question: What about the remaining binding at 1 µM (MARK2) of the same compound?
Answer: 100%

Question: What about the remaining binding at 1 µM (SNARK) of the same compound?
Answer: 100%

Question: What about the remaining binding at 1 µM (PIK4CB) of the same compound?
Answer: 100%

Question: What about the remaining binding at 1 µM [5] of the same compound?
Answer: 100%

Question: And the remaining binding at 1 µM (ALK)?
Answer: 100%

Question: What about the “Percent Control” value (FLT3(ITD,D835V)) of the same compound?
Answer: 88%

Question: What about the remaining binding at 1 µM (YANK2) of the same compound?
Answer: 100%

Question: And the remaining binding at 1 µM (SRPK1)?
Answer: 80%

Question: And the remaining binding at 1 µM (YSK4)?
Answer: 85%

Question: And the remaining binding at 1 µM (PRKR)?
Answer: 100%

Question: And the remaining binding at 1 µM (ARK5)?
Answer: 100%
